In PubChem BioAssay (NCI):
Where “and” joins values, the source holds several entries; their conditions need not be identical. Equal values may be shown once.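 Abbreviation: GI50, concentration required for 50% inhibition of growth. TGI denotes the concentration required for complete inhibition of growth.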

Assays:
Test in all cases: inhibition of tumour cell growth, NCI panel, 384-well format
PC-3 prostate = tested on: PC-3 prostate
SK-MEL-2 melanoma = tested on: SK-MEL-2 melanoma
EKVX NSCLC = tested on: EKVX NSCLC
OVCAR-3 ovarian = tested on: OVCAR-3 ovarian
LOX IMVI melanoma = tested on: LOX IMVI melanoma
HL-60(TB) leukemia = tested on: HL-60(TB) leukemia
CAKI-1 renal = tested on: CAKI-1 renal
OVCAR-8 ovarian = tested on: OVCAR-8 ovarian
MALME-3M melanoma = tested on: MALME-3M melanoma
MOLT-4 leukemia = tested on: MOLT-4 leukemia
HCC-2998 colon = tested on: HCC-2998 colon
UO-31 renal = tested on: UO-31 renal
SK-MEL-28 melanoma = tested on: SK-MEL-28 melanoma
HS 578T breast = tested on: HS 578T breast
BT-549 breast = tested on: BT-549 breast
MDA-MB-231 breast = tested on: MDA-MB-231 breast
SF-268 CNS = tested on: SF-268 CNS
K-562 leukemia = tested on: K-562 leukemia
SK-OV-3 ovarian = tested on: SK-OV-3 ovarian
OVCAR-4 ovarian = tested on: OVCAR-4 ovarian
A549 NSCLC = tested on: A549 NSCLC
NCI-H226 lung = tested on: NCI-H226 lung
TK-10 renal = tested on: TK-10 renal
UACC-62 melanoma = tested on: UACC-62 melanoma
ACHN renal = tested on: ACHN renal
CCRF-CEM leukemia = tested on: CCRF-CEM leukemia
MDA-MB-468 breast = tested on: MDA-MB-468 breast
SK-MEL-5 melanoma = tested on: SK-MEL-5 melanoma
SNB-75 CNS = tested on: SNB-75 CNS
U251 glioblastoma = tested on: U251 glioblastoma
SF-295 CNS = tested on: SF-295 CNS
HOP-62 NSCLC = tested on: HOP-62 NSCLC
IGROV1 ovarian = tested on: IGROV1 ovarian
COLO 205 colon = tested on: COLO 205 colon
HOP-92 NSCLC = tested on: HOP-92 NSCLC
RXF 393 renal = tested on: RXF 393 renal
NCI-H460 NSCLC = tested on: NCI-H460 NSCLC
MDA-MB-435 melanoma = tested on: MDA-MB-435 melanoma
M14 melanoma = tested on: M14 melanoma
HT29 colon = tested on: HT29 colon
DU-145 prostate = tested on: DU-145 prostate
RPMI-8226 leukemia = tested on: RPMI-8226 leukemia
SF-539 CNS = tested on: SF-539 CNS
T-47D breast = tested on: T-47D breast
NCI/ADR-RES ovarian = tested on: NCI/ADR-RES ovarian
HCT-116 colon = tested on: HCT-116 colon
HCT-15 colon = tested on: HCT-15 colon
SW-620 colon = tested on: SW-620 colon
NCI-H322M lung = tested on: NCI-H322M lung
OVCAR-5 ovarian = tested on: OVCAR-5 ovarian
A498 renal = tested on: A498 renal
MCF7 breast = tested on: MCF7 breast
SNB-19 CNS = tested on: SNB-19 CNS
KM12 colon = tested on: KM12 colon
786-0 renal = tested on: 786-0 renal
NCI-H23 lung = tested on: NCI-H23 lung
SN12C renal = tested on: SN12C renal

## CCc1nc(C(N)=O)c(Nc2ccc(N3CCC(N4CCN(C)CC4)CC3)c(OC)c2)nc1NC1CCOCC1
PC-3 prostate
  GI50: 385 nM and 672 nM
  TGI: > 100000 nM
SK-MEL-2 melanoma
  GI50: 242 nM
  TGI: 1300 nM
EKVX NSCLC
  GI50: 463 nM
  TGI: 99300 nM
OVCAR-3 ovarian
  GI50: 1170 nM and 584 nM
  TGI: > 25600 nM and 4320 nM
LOX IMVI melanoma
  GI50: 775 nM and 371 nM
HL-60(TB) leukemia
  GI50: 357 nM and 185 nM
  TGI: 1030 nM and 403 nM
CAKI-1 renal
  GI50: 247 nM and 155 nM
  TGI: 556 nM
OVCAR-8 ovarian
  GI50: 5100 nM and 758 nM
  TGI: > 100000 nM
MALME-3M melanoma
  GI50: 302 nM and 155 nM
  TGI: 1700 nM and 1060 nM
MOLT-4 leukemia
  GI50: 371 nM and 191 nM
  TGI: 1330 nM and 375 nM
HCC-2998 colon
  GI50: 180 nM and 253 nM
  TGI: 5550 nM and 3080 nM
UO-31 renal
  GI50: 457 nM and 231 nM
SK-MEL-28 melanoma
  GI50: 227 nM
  TGI: 986 nM
HS 578T breast
  GI50: 1180 nM
  TGI: 3540 nM
BT-549 breast
  GI50: 551 nM and 339 nM
  TGI: 2580 nM and 1730 nM
MDA-MB-231 breast
  GI50: 474 nM and 370 nM
  TGI: 2570 nM and 1760 nM
SF-268 CNS
  GI50: 2190 nM and 1360 nM
  TGI: > 26500 nM
K-562 leukemia
  GI50: 1250 nM
  TGI: 3940 nM
SK-OV-3 ovarian
  GI50: 339 nM and 160 nM
OVCAR-4 ovarian
  GI50: > 100000 nM
  TGI: > 100000 nM
A549 NSCLC
  GI50: 533 nM and 259 nM
NCI-H226 lung
  GI50: 584 nM and 593 nM
  TGI: 4610 nM
TK-10 renal
  GI50: 1680 nM and 818 nM
UACC-62 melanoma
  GI50: 396 nM and 214 nM
  TGI: 1320 nM
ACHN renal
  GI50: 593 nM and 391 nM
  TGI: > 100000 nM
CCRF-CEM leukemia
  GI50: 1730 nM and 828 nM
  TGI: 3390 nM and 2100 nM
MDA-MB-468 breast
  GI50: 2150 nM
SK-MEL-5 melanoma
  GI50: 661 nM and 406 nM
  TGI: > 100000 nM
SNB-75 CNS
  GI50: 1360 nM
  TGI: 4160 nM
U251 glioblastoma
  GI50: 6480 nM and 834 nM
SF-295 CNS
  GI50: 4620 nM and 1040 nM
  TGI: > 20900 nM and 3070 nM
HOP-62 NSCLC
  GI50: 1230 nM and 392 nM
IGROV1 ovarian
  GI50: 335 nM and 179 nM
  TGI: 1620 nM and 484 nM
COLO 205 colon
  GI50: 495 nM and 303 nM
  TGI: 5230 nM and 1100 nM
HOP-92 NSCLC
  GI50: 114 nM and 36.3 nM
  TGI: 608 nM and 213 nM
RXF 393 renal
  GI50: 1170 nM and 208 nM
NCI-H460 NSCLC
  GI50: 465 nM and 292 nM
MDA-MB-435 melanoma
  GI50: 704 nM and 329 nM
  TGI: > 100000 nM
M14 melanoma
  GI50: 402 nM and 239 nM
  TGI: 1790 nM and 1160 nM
HT29 colon
  GI50: 282 nM and 174 nM
DU-145 prostate
  GI50: 491 nM and 322 nM
RPMI-8226 leukemia
  GI50: 975 nM and 255 nM
  TGI: 4200 nM and 984 nM
SF-539 CNS
  GI50: 1910 nM and 638 nM
  TGI: 6720 nM and 2320 nM
T-47D breast
  TGI: > 100000 nM
NCI/ADR-RES ovarian
  GI50: 3260 nM and 2240 nM
  TGI: > 100000 nM
HCT-116 colon
  GI50: 494 nM and 294 nM
  TGI: 5950 nM and 3070 nM
HCT-15 colon
  GI50: 458 nM and 318 nM
  TGI: > 100000 nM
SW-620 colon
  GI50: 587 nM and 444 nM
  TGI: 2070 nM and 1580 nM
NCI-H322M lung
  GI50: 674 nM and 246 nM
OVCAR-5 ovarian
  GI50: 503 nM and 216 nM
A498 renal
  GI50: 619 nM and 283 nM
MCF7 breast
  GI50: 383 nM and 247 nM
SNB-19 CNS
  GI50: 3390 nM and 1080 nM
  TGI: > 100000 nM
KM12 colon
  GI50: 35.3 nM and 16.5 nM
786-0 renal
  GI50: 1030 nM and 313 nM
  TGI: 5870 nM and 1580 nM
NCI-H23 lung
  GI50: 300 nM and 123 nM
  TGI: 5540 nM and 617 nM
SN12C renal
  GI50: 168 nM and 67.1 nM
  TGI: > 100000 nM
